The source of these data is patent US10058540B2, “2-amino-5,5-difluoro-6-(fluoromethyl)-6-phenyl-3,4,5,6-tetrahydropyridines as BACE1 inhibitors” (H. Lundbeck A/S, priority 2014, dated 2018).

Structures are written as SMILES.

Series [1] has as its system P-gp (MDR1). The series can be described thus: MDCK-MDR1 assay (permeability / Pgp efflux). In kind it is in vitro ADME. Conditions: dog, Papp BA/Papp AB, Pgp substrate when ≥2. The procedure: The permeability of the test compounds was assessed in MDCK-MDR1 cells that were cultured to confluency (4-6 days) in a 96 transwell plate. Test compounds were diluted with the transport buffer (HBSS+1% BSA) to a concentration of 0.5 μM and applied to the apical or basolateral side of the cell monolayer. Permeation of the test compounds from A to B direction or B to A direction was determined in triplicate over a 60-minute incubation time at 37° C. and 5% CO2 with a relative humidity of 95%. Test compounds were quantified by LC-MS/MS analysis based on the peaks area ratios of analyte/IS in both the receiver and donor wells of the transwell plate.
The apparent permeability coefficient Papp (cm/s) was calculated using the equation: Papp=(dCr/dt)×Vr/(A×C0) Where dCr/dt is the cumulative concentration of compound in the receiver chamber as a function of time (μM/s); Vr is the solution volume in the receiver chamber (0.05 mL on the apical side; 0.25 mL on the basolateral side); A is the surface area for the transport, i.e. 0.0804 cm^2 for the area of the monolayer; C0 is the initial concentration in the donor chamber (μM).
Compounds are classified Pgp substrates when efflux ratio (Papp BA/Papp AB) is ≥2.

Series [2] has as its target T1, BACE1 (Homo sapiens (Human), UniProt P56817). The series can be described thus: BACE1 efficacy assay (FRET-based, commercial BACE1 kit). In kind it is biochemical. To be noted: 10 μM test compound. The procedure:
The efficacy assay was performed as a FRET-based assay using a commercially available BACE1 kit (Life Technologies, P2985). 2 μl test compound at 10 μM (final concentration) and 15 μl BACE1 enzyme from the kit (final concentration 3 nM) were preincubated for 15 minutes at room temperature before addition of 15 μl of substrate from the kit (250 nM final concentration) and incubated for additional 90 minutes at room temperature. The assay plate was subsequently read in a Pherastar (Ex540/Em590). The enzyme activity observed in presence of test compound were normalized to the enzyme activity observed in presence of buffer and 10 μM (final concentration) of the high affinity BACE1 reference inhibitor (S)-6-[3-Chloro-5-(5-prop-1-ynyl-pyridin-3-yl)-thiophen-2-yl]-2-imino-3,6-dimethyl-tetra-hydropyrimidin-4-one, respectively. The efficacy of the test compounds was evaluated at 10 μM (final concentration) and defined as the percent inhibition of the enzyme activity using the equation % inhibition=100%−normalized enzyme activity in percent.

Series [3] deals with T1, BACE1. The series is described as follows: BACE1 binding assay (SPA-based, radioligand). Conditions: pH 4.5, Ki=IC50/(1+L/Kd). The procedure:
The binding assay was performed as SPA-based assay using a biotinylated form of human BACE1 recombinantly expressed and subsequently purified from Freestyle HEK293 cells. The binding assay was run in a 50 mM sodium acetate buffer, pH 4.5 containing 50 mM NaCl and 0.03% Tween-20 in white clear bottom 384 plates (Corning #3653). 10 nM (final concentration) radioligand ([^3H]-N-((1S,2R)-1-benzyl-3-cyclopropylamino-2-hydroxy-propyl)-5-(methanesulfonyl-methyl-amino)-N-((R)-1-phenyl-ethyl)-isophthalamide) (TRQ11569 purchased from GE Healthcare) was mixed with test compound at a given concentration, 6 nM (final concentration) human BACE1 and 25 μg Streptavidin coated PVT core SPA beads (RPNQ0007, GE Healthcare Life Sciences) in a total volume of 40 μl. Several concentrations of each test compound were tested in the assay for IC50 determination. The plates were incubated for one hour at room temperature and counted in a Wallac Trilux counter. Total and non-specific binding were determined using buffer and 1 μM (final concentration) of the high affinity BACE1 reference inhibitor (S)-6-[3-chloro-5-(5-prop-1-ynyl-pyridin-3-yl)-thiophen-2-yl]-2-imino-3,6-dimethyl-tetrahydro-pyrimidin-4-one, respectively. For each test compound, a IC50 value (the concentration mediating 50% inhibition of the specific binding of the radioligand) was determined from concentration-response curve and used to calculate the Ki from the equation Ki=IC50/(1+L/Kd), where L and Kd are the final concentration of the radioligand used in the assay and the dissociation constant of the radioligand, respectively. The Kd of the radioligand was determined from saturation binding experiments.

T1 sequence (P56817 46-501): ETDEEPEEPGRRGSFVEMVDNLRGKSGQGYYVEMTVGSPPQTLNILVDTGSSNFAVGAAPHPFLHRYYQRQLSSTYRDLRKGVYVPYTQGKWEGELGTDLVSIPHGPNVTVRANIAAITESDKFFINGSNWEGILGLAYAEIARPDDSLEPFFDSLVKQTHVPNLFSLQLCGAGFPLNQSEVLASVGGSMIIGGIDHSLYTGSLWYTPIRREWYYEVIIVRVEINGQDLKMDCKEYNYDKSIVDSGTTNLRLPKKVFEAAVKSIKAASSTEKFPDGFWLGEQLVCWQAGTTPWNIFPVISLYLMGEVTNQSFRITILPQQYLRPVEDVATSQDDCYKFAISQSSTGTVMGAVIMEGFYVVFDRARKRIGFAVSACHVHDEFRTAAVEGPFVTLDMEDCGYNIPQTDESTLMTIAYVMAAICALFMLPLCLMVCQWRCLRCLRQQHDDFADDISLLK

Regarding `NC1=N[C@](CF)(c2cc(NC(=O)c3ccc(Cl)cn3)ccc2F)C(F)(F)CC1` [Compound 1, (S)-N-(3-(6-amino-3,3-difluoro-2-(fluoromethyl)-2,3,4,5-tetrahydropyridin-2-yl)-4-fluorophenyl)-5-chloropicolinamide], the efflux ratio (as a rule, the permeability from basolateral to apical divided by that in the opposite direction, in the common usage) at 60 min, 0.5 μM in series [1] was 1.75. In addition, the inhibition (usually the change of the read-out against control, counted positive when it falls) at 10 µM in series [2] came out at 104%. Also, affinity in series [3] was put at a Ki of 5.7 nM.

In the case of `NC1=N[C@](CF)(c2cc(NC(=O)c3ccc(F)cn3)ccc2F)C(F)(F)CC1` [Compound 2, (S)-N-(3-(6-amino-3,3-difluoro-2-(fluoromethyl)-2,3,4,5-tetrahydropyridin-2-yl)-4-fluoro-phenyl)-5-fluoropicolinamide], in series [1], the efflux ratio at 60 min, 0.5 μM is 2.6. In series [2], the inhibition at 10 µM amounted to 104%. In addition, in series [3], the Ki (as a rule, a measure of affinity in units of concentration, obtained from inhibition or displacement) was 22 nM.

With `COc1cnc(C(=O)Nc2ccc(F)c([C@@]3(CF)N=C(N)CCC3(F)F)c2)cn1` [Compound 3, (S)-N-(3-(6-amino-3,3-difluoro-2-(fluoromethyl)-2,3,4,5-tetrahydropyridin-2-yl)-4-fluoro-phenyl)-5-methoxypyrazine-2-carboxamide], the efflux ratio at 60 min, 0.5 μM in series [1] stood at 2.84. Further, the inhibition at 10 µM in series [2] came out at 104%. The affinity in series [3] corresponds to a Ki of 13 nM.

Turning to `NC1=N[C@](CF)(c2cc(NC(=O)c3ccn(C(F)F)n3)ccc2F)C(F)(F)CC1` [Compound 4, (S)-N-(3-(6-amino-3,3-difluoro-2-(fluoromethyl)-2,3,4,5-tetrahydropyridin-2-yl)-4-fluorophenyl)-1-(difluoromethyl)-1H-pyrazole-3-carboxamide], the efflux ratio at 60 min, 0.5 μM in series [1] stood at 13.8. Moreover, the inhibition at 10 µM in series [2] came to 104%. This molecule returned an inhibition constant (Ki) in series [3] of 25 nM.

`NC1=N[C@](CF)(c2cc(NC(=O)c3coc(C(F)F)n3)ccc2F)C(F)(F)CC1` [Compound 5, (S)-N-(3-(6-amino-3,3-difluoro-2-(fluoromethyl)-2,3,4,5-tetrahydropyridin-2-yl)-4-fluoro-phenyl)-2-(difluoromethyl)oxazole-4-carboxamide]: in series [1], the efflux ratio at 60 min, 0.5 μM came to 7.31. In series [2], the inhibition at 10 µM stood at 102%. In series [3], this molecule displayed a Ki of 15 nM.

In the case of `N#Cc1ccc(C(=O)Nc2ccc(F)c([C@@]3(CF)N=C(N)CCC3(F)F)c2)nc1` [Compound 6, (S)-N-(3-(6-amino-3,3-difluoro-2-(fluoromethyl)-2,3,4,5-tetrahydropyridin-2-yl)-4-fluoro-phenyl)-5-cyanopicolinamide], the efflux ratio at 60 min, 0.5 μM in series [1] worked out at 2.07. Moreover, in series [2], the inhibition at 10 µM was found to be 103%. The molecule also returned a Ki in series [3] of 20 nM.

Consider `Cc1nc(C(=O)Nc2ccc(F)c([C@@]3(CF)N=C(N)CCC3(F)F)c2)co1` [Compound 7, (S)-N-(3-(6-amino-3,3-difluoro-2-(fluoromethyl)-2,3,4,5-tetrahydropyridin-2-yl)-4-fluoro-phenyl)-2-methyloxazole-4-carboxamide], for which, in series [1], the efflux ratio at 60 min, 0.5 μM is 4.59. Also, the inhibition at 10 µM in series [2] was 96%. The Ki in series [3] was found to be 32 nM.

In the case of `COc1cnc(C(=O)Nc2ccc(F)c([C@@]3(CF)N=C(N)CCC3(F)F)c2)nc1` [Compound 8, (S)-N-(3-(6-amino-3,3-difluoro-2-(fluoromethyl)-2,3,4,5-tetrahydropyridin-2-yl)-4-fluoro-phenyl)-5-methoxypyrimidine-2-carboxamide], the efflux ratio at 60 min, 0.5 μM in series [1] is 23.4. The molecule further gave a Ki in series [3] of 29 nM.

In the case of `NC1=N[C@](CF)(c2cc(NC(=O)c3cnc(C(F)F)cn3)ccc2F)C(F)(F)CC1` [Compound 9, (S)-N-(3-(6-amino-3,3-difluoro-2-(fluoromethyl)-2,3,4,5-tetrahydropyridin-2-yl)-4-fluoro-phenyl)-5-(difluoromethyl)pyrazine-2-carboxamide], in series [1], the efflux ratio at 60 min, 0.5 μM was 1.76. In addition, in series [2], the inhibition at 10 µM is 103%. This molecule also registered a Ki in series [3] of 30 nM.

For `Cc1nc(C(=O)Nc2cc(F)c(F)c([C@@]3(CF)N=C(N)CCC3(F)F)c2)co1` [Compound 10, (S)-N-(3-(6-amino-3,3-difluoro-2-(fluoromethyl)-2,3,4,5-tetrahydropyridin-2-yl)-4,5-difluorophenyl)-2-methyloxazole-4-carboxamide], in series [1], the efflux ratio at 60 min, 0.5 μM stood at 3.57. For the same molecule, the inhibition at 10 µM in series [2] stood at 102%. The inhibition constant (Ki) in series [3] is 55 nM.

Consider `NC1=N[C@](CF)(c2cc(NC(=O)c3ccc(F)cn3)cc(F)c2F)C(F)(F)CC1` [Compound 12, (S)-N-(3-(6-amino-3,3-difluoro-2-(fluoromethyl)-2,3,4,5-tetrahydropyridin-2-yl)-4,5-difluorophenyl)-5-fluoropicolinamide], for which the efflux ratio at 60 min, 0.5 μM in series [1] is 1.11. The inhibition at 10 µM in series [2] was found to be 101%. The molecule further yielded an inhibitory constant (Ki) in series [3] of 84 nM.

As for `NC1=N[C@](CF)(c2cc(NC(=O)c3ccc(Cl)cn3)cc(F)c2F)C(F)(F)CC1` [Compound 13, (S)-N-(3-(6-amino-3,3-difluoro-2-(fluoromethyl)-2,3,4,5-tetrahydropyridin-2-yl)-4,5-difluorophenyl)-5-chloropicolinamide], in series [1], the efflux ratio at 60 min, 0.5 μM is 1.11. In series [2], the inhibition at 10 µM was determined as 103%. The molecule further gave an inhibitory constant (Ki) in series [3] of 22 nM.

As for `N#Cc1ccc(C(=O)Nc2cc(F)c(F)c([C@@]3(CF)N=C(N)CCC3(F)F)c2)nc1` [Compound 14, (S)-N-(3-(6-amino-3,3-difluoro-2-(fluoromethyl)-2,3,4,5-tetrahydropyridin-2-yl)-4,5-difluorophenyl)-5-cyanopicolinamide], the efflux ratio at 60 min, 0.5 μM in series [1] was determined as 1.81. In addition, in series [2], the inhibition at 10 µM is 103%. Further, the Ki in series [3] was 23 nM.

Consider `[2H]C([2H])([2H])Oc1ccc(C(=O)Nc2cc(F)c(F)c([C@@]3(CF)N=C(N)CCC3(F)F)c2)nc1` [Compound 16, (S)-N-(3-(6-amino-3,3-difluoro-2-(fluoromethyl)-2,3,4,5-tetrahydropyridin-2-yl)-4,5-difluorophenyl)-5-(methoxy-d3)picolinamide], for which the efflux ratio at 60 min, 0.5 μM in series [1] was 1.1. Also, in series [2], the inhibition at 10 µM is 106%. Besides, in series [3], the Ki was 21 nM.

For `Cc1cc(C#N)cnc1C(=O)Nc1cc(F)c(F)c([C@@]2(CF)N=C(N)CCC2(F)F)c1` [Compound 17, (S)-N-(3-(6-amino-3,3-difluoro-2-(fluoromethyl)-2,3,4,5-tetrahydropyridin-2-yl)-4,5-difluorophenyl)-5-cyano-3-methylpicolinamide], the efflux ratio at 60 min, 0.5 μM in series [1] turned out to be 2.21. Further, the inhibition at 10 µM in series [2] was 111%. In series [3], this molecule had a Ki of 16 nM.

As to `[2H]C([2H])([2H])Oc1ccc(C(=O)Nc2ccc(F)c([C@@]3(CF)N=C(N)CCC3(F)F)c2)nc1` [Compound 18, (S)-N-(3-(6-amino-3,3-difluoro-2-(fluoromethyl)-2,3,4,5-tetrahydropyridin-2-yl)-4-fluorophenyl)-5-(methoxy-d3)picolinamide], the inhibition at 10 µM in series [2] was determined as 109%. Also, in series [3], the Ki worked out at 25 nM.

Regarding `NC1=N[C@](CF)(c2cc(NC(=O)c3ccc(Br)cn3)ccc2F)C(F)(F)CC1` [Compound 19, (S)-N-(3-(6-amino-3,3-difluoro-2-(fluoromethyl)-2,3,4,5-tetrahydropyridin-2-yl)-4-fluorophenyl)-5-bromopicolinamide], the efflux ratio at 60 min, 0.5 μM in series [1] amounted to 1.59. Also, the affinity in series [3] corresponds to a Ki of 11 nM.
